From patent US9242972B2, “Compounds” (Glaxo Group Limited, priority 2012, dated 2016) come the findings set out here.

For assay [1], the system named is IL-17A secreted from antiCD3/CD28 stimulated Peripheral Blood Mononuclear cells (PBMC). Kind of assay: Peripheral Blood Mononucleocyte Cell Assay (PBMC Assay - IL-17). The class given is cell-based. Particulars: inhibition of IL-17A release, human PBMC stimulated with CD3/CD28 beads, 48 hours; read-out: mean pIC50 (converted). On the procedure:
Peripheral Blood Mononucleocyte Cell Assay (PBMC Assay—IL-17)
This assay is designed to measure levels of IL-17A secreted from antiCD3/CD28 stimulated frozen Peripheral Blood Mononuclear cells (PBMC) isolated from human blood with the aim of identifying inhibitors of IL-17A release.
2. The compounds for screening are dispensed into a master plate at 10 mM top concentration which are serially diluted 1:3 across 11 points in DMSO, then 500 nl is transferred into a 384-well flat-bottomed Greiner plate to which 50 ul of cell suspension is added: for the single shot screening the highest concentration of compound is 10^−5 M; for 11 point full curve dose response studies the highest concentration is 10^−4 M.
As a low control, DMSO (as supplied, for example, by VWR) (final concentration 1%) in column 6 (16 points).
As a high control, 5-(4-fluorophenyl)-2-ureidothiophene-3-carboxamide (obtainable from, for example, Sigma) at a final concentration of 10^−4 M in DMSO should be used in column 18 (16 points).
9. Make the cell suspension at the concentration 8×10^5 cells/mL. to give a final number of 40,000 cells/well.
1. Add well mixed CD3/CD28 Dynabeads (as supplied, for example, by Dynal) to achieve ratio bead:cell=2:1 (i.e a dilution of 1 in 20). Mix thoroughly.
2. Dispense the suspension into the 384 Assay Plates using Multidrop (50 ul per well). If the volume of cell suspension is large, mix the suspension after dispensing into every other plate.
3. Cover the plates with the lids and place them to the humidified incubator (37° C., 5% CO2) for 48 hours.
1. Block cytokine capture Mesoscale Discovery MSD plates with 0.1% Block buffer B (provided by Mesoscale Discovery) in D-PBS solution using 40 ul per well.
1. Transfer 10 ul of supernatants from assay plates to the MSD plates using Cybiwell. Ensure that all wells are covered with the solution. Tap the plate gently, if some of the wells are not covered with the supernatant.
3. Add 10 ul of MSD IL-17 detecting antibody using multidrop (1 ug/mL in D-PBS without Ca^2+ and Mg^2+ (supplied, for example, by Gibco)).
4. Cover the plates with adhesive foil and incubated with shaking for 3 hours at room temperature
7. Add 35 ul of MSD Read Buffer T×2 using multidrop.
8. Read plates on MSD MA6000 reader using the 384 well plate protocol as per manufacturer's instructions.

Assay [2] deals with T1, RORγ ligand binding domain (RORγ-LBD) (Homo sapiens, UniProt P51449).
T1 construct: His6 with thrombin site) (N); made in house; host or cells: E. coli BL21(DE3), modified pET21a vector
T1 sequence (P51449 263-518): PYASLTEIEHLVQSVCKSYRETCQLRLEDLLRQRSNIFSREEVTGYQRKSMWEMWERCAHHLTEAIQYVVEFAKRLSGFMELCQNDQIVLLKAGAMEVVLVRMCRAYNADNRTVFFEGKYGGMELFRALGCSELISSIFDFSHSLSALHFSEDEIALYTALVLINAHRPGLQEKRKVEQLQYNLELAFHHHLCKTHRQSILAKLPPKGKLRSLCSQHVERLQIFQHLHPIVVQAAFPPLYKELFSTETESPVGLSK
Kind of assay: Dual Fluorescence Energy Transfer (FRET) Assay. The format is biochemical. Particulars: RORγ-LBD / SRC1(2) co-activator peptide interaction, read-out: mean pIC50 (converted). An excerpt:
Dual Fluorescence Energy Transfer (FRET) Assay
This assay is based on the knowledge that nuclear receptors interact with cofactors (transcription factors) in a ligand dependent manner. RORγ is a typical nuclear receptor in that it has an AF2 domain in the ligand binding domain (LBD) which interacts with co-activators. The sites of interaction have been mapped to the LXXLL (SEQ ID NO:1) motifs in the co-activator SRC 1(2) sequences. Short peptide sequences containing the LXXLL (SEQ ID NO:1) motif mimic the behavior of full-length co-activator.
This assay measures ligand-mediated interaction of the co-activator peptide with the purified bacterial-expressed RORγ ligand binding domain (RORγ-LBD) to indirectly assess ligand binding. RORγ has a basal level of interaction with the co-activator SRC1(2) in the absence of ligand, Thus, it is possible to find ligands that inhibit or enhance the RORγ/SRC1(2) interaction.
Human RORγ Ligand Binding Domain (RORγ-LBD) was expressed in E. coli strain BL21(DE3) as an amino-terminal polyhistidine tagged fusion protein. DNA encoding this recombinant protein was sub-cloned into a modified pET21a expression vector (Novagen). A modified polyhistidine tag ([…]) (SEQ ID NO:2) was fused in frame to residues 263-518 of the human RORγ sequence.
Approximately 50 g E. coli cell pellet was resuspended in 300 mL of lysis buffer (30 mM imidazole pH 7.0 and 150 mM NaCl). Cells were lysed by sonication and cell debris was removed by centrifugation for 30 minutes at 20,000 g at 4° C. The cleared supernatant was filtered through a 0.45 uM cellulose acetate membrane filter. The clarified lysate was loaded onto a column (XK-26) packed with ProBond Nickel Chelating resin (InVitrogen), pre-equilibrated with 30 mM imidazole pH 7.0 and 150 mM NaCl. After washing to baseline absorbance with the equilibration buffer, the column was developed with a gradient from 30 to 500 mM imidazole pH 7.0. Column fractions containing the RORγ-LBD protein were pooled and concentrated to a volume of 5 mLs. The concentrated protein was loaded onto a Superdex 200 column pre-equilibrated with 20 mM Tris-Cl pH 7.2 and 200 mM NaCl. The fractions containing the desired RORγ-LBD protein were pooled together.
Purified RORγ-LBD was buffer exchanged by exhaustive dialysis [3 changes of at least 20 volumes (8000×)] against PBS [100 mM NaPhosphate, pH 8 and 150 mM NaCl]. The concentration of RORγ-LBD was approximately 30 uM in PBS. Five-fold molar excess of NHS-LC-Biotin (Pierce) was added in a minimal volume of PBS. This solution was incubated with occasional gentle mixing for 60 minutes at ambient room temperature. The modified RORγ-LBD was dialyzed against 2 buffer changes—TBS pH 8.0 containing 5 mM DTT, 2 mM EDTA and 2% sucrose—each at least 20 times of the volume. The modified protein was distributed into aliquots, frozen on dry ice and stored at −80° C. The biotinylated RORγ-LBD was subjected to mass spectrometric analysis to reveal the extent of modification by the biotinylation reagent. In general, approximately 95% of the protein had at least a single site of biotinylation and the overall extent of biotinylation followed a normal distribution of multiple sites ranged from one to five.
A biotinylated peptide corresponding to amino acid 676 to 700 ([…]) (SEQ ID NO:3) of the co-activator steroid receptor coactivator SRC1(2) was generated using similar method.
Biotinylated SRC1(2) solution was prepared by adding an appropriate amount of biotinylated SRC1(2) from the 100 uM stock solution to a buffer containing 10 mM of freshly added DTT from solid to give a final concentration of 40 nM. An appropriate amount of Europium labeled Streptavidin was then added to the biotinylated SRC1(2) solution in a tube to give a final concentration of 10 nM. The tube was inverted gently and incubated for 15 minutes at room temperature. […]

As for `Cc1cc(C(C)C)cnc1N(CC(C)C)S(=O)(=O)c1ccc(OC[C@H]2CCNC[C@H]2F)cc1` (relative stereo) [Example 35, 4-((cis-3-fluoropiperidin-4-yl)methoxy)-N-isobutyl-N-(5-isopropyl-3-methylpyridin-2-yl)benzenesulfonamide], the IC50 in assay [1] is 1000 nM.

For the compound `Cc1noc(C)c1COc1ccc(S(=O)(=O)N(CC(C)C)c2ccc(C(C)C)cn2)cc1` [Example 2, 4-((3,5-dimethylisoxazol-4-yl)-methoxy)-N-isobutyl-N-(5-isopropylpyridin-2-yl)benzenesulfonamide], the IC50 was 1000 nM in assay [1] and no more than 31.6 nM in assay [2].

Consider `Cc1noc(C)c1COc1ccc(S(=O)(=O)N(CC(C)C)c2nccc(C(F)(F)F)n2)cc1` [Example 14, 4-{[(3,5-dimethyl-4-isoxazolyl)methyl]oxy}-N-(2-methylpropyl)-N-[4-(trifluoromethyl)-2-pyrimidinyl]benzenesulfonamide], for which the IC50 in assay [2] is greater than 10000 nM.

For the compound `Cc1cnc(N(CC(C)C)S(=O)(=O)c2ccc(OCc3c(C)noc3C)cc2)c(C)c1` [Example 15, 4-{[(3,5-dimethyl-4-isoxazolyl)methyl]oxy}-N-(3,5-dimethyl-2-pyridinyl)-N-(2-methylpropyl)benzenesulfonamide], the IC50 in assay [2] is no more than 31.6 nM.

`CCc1ccc(C)nc1N(CC(C)C)S(=O)(=O)c1ccc(OCc2c(C)noc2C)cc1` [Example 24, 4-((3,5-dimethylisoxazol-4-yl)methoxy)-N-(3-ethyl-6-methylpyridin-2-yl)-N-isobutylbenzenesulfonamide]: the IC50 is 1000 nM in assay [1] and no more than 31.6 nM in assay [2].

`Cc1cc(C(C)C)cnc1N(CC(C)C)S(=O)(=O)c1ccc(OCC2CCOCC2)cc1` [Example 31, N-isobutyl-N-(5-isopropyl-3-methylpyridin-2-yl)-4-((tetrahydro-2H-pyran-4-yl)methoxy)benzenesulfonamide]: the IC50 in assay [2] is no more than 31.6 nM.

As for `C=C(C)c1cnc(N(CC(C)C)S(=O)(=O)c2ccc(OCC3CCOCC3)cc2)c(C)c1` [Example 32, N-isobutyl-N-(3-methyl-5-(prop-1-en-2-yl)pyridin-2-yl)-4-((tetrahydro-2H-pyranyl)methoxy)benzenesulfonamide], the IC50 in assay [2] is no more than 31.6 nM.

Take `CC(C)CN(c1ccc(C(C)C)cn1)S(=O)(=O)c1ccc(OCC2CCOCC2)cc1` [Example 33, N-isobutyl-N-(5-isopropylpyridin-2-yl)-4-((tetrahydro-2H-pyran-4-yl)methoxy)benzenesulfonamide]: the IC50 in assay [2] is no more than 31.6 nM.

In the case of `Cc1cc(Cl)cnc1N(CC(C)C)S(=O)(=O)c1ccc(OCC2CCOCC2)cc1` [Example 34, N-(5-chloro-3-methylpyridin-2-yl)-N-isobutyl-4-((tetrahydro-2H-pyran-4-yl)methoxy)benzenesulfonamide], the IC50 in assay [2] is no more than 31.6 nM.

On to `CC(C)c1ccc(N(C(C)C(C)C)S(=O)(=O)c2ccc(OCC3CCOCC3)cc2)nc1` (stereo not drawn) [Example 38, N-(5-isopropylpyridin-2-yl)-N-(3-methylbutan-2-yl)-4-((tetrahydro-2H-pyran-4-yl)methoxy)benzenesulfonamide], for which the IC50 was 1000 nM in assay [1] and no more than 31.6 nM in assay [2].

In the case of `Cc1noc(C)c1COc1ccc(S(=O)(=O)N(CC2CCC2)c2ccc(C(C)C)cn2)cc1` [Example 47, N-(cyclobutylmethyl)-4-((3,5-dimethylisoxazol-4-yl)methoxy)-N-(5-isopropylpyridin-2-yl)benzenesulfonamide], the IC50 in assay [2] was no more than 31.6 nM.

As to `CCC(C)CN(c1ccc(C(C)C)cn1)S(=O)(=O)c1ccc(OCc2c(C)noc2C)cc1` (stereo not drawn) [Example 49, 4-((3,5-dimethylisoxazol-4-yl)methoxy)-N-(5-isopropylpyridin-2-yl)-N-(2-methylbutyl)benzenesulfonamide], in assay [2], the IC50 was no more than 31.6 nM.
